Reference: patent US8546377B2 (AbbVie Inc., priority 2009, dated 2013)

Tests used:
[1] = target: T1, human serotonin 5-HT2c receptor (Homo sapiens, UniProt P28335); experiment: Human 5-HT2C receptor radioligand binding assay (agonist site, [125I](±)DOI); conditions: membranes of transfected CHO cells, 0.2 nM [125I](±)DOI, 15 minutes at 37° C.
T1 construct: expressed in transfected cells; host or cells: CHO cells (membrane homogenate)
T1 sequence (P28335 33-458): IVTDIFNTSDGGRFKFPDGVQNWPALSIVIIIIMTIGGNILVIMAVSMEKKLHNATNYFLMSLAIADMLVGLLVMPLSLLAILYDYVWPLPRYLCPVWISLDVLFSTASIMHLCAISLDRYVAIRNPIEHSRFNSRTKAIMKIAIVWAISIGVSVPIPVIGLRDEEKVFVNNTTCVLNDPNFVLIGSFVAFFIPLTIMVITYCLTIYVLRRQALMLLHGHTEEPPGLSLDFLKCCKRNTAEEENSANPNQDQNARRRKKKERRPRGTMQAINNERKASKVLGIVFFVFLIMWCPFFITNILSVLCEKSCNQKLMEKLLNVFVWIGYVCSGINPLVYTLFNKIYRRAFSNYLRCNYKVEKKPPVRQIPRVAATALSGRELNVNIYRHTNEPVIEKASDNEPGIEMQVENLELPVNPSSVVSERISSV
Procedure: To determine the effectiveness of compounds having a formula (I), these compounds can be evaluated in a radioligand binding assay for the agonist site of the human serotonin 5-HT2c receptor or in vitro models of cellular function.
(i) Human 5-HT2C Receptor Radioligand Binding Assay
Affinity of compounds for the agonist site of the 5-HT2c receptor in transfected CHO cells was determined in a radioligand binding assay essentially as described by Bryant, H. U., et al., Life Sciences (1996) 59(15), 1259-1268.

5HT2B receptors = target: T2, 5HT2B receptors (Homo sapiens, UniProt P41595); experiment: Human 5-HT2B functional assay in CHO-K1 cells (calcium flux, FLIPR); format: cell-based; conditions: for Emax: CHO-K1, read-out: Emax (%), 5-HT2B Agonist Activity
T2 construct: expressed in transfected cells; host or cells: CHO-K1 cells
In short: (§1)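 EC50 came from a 4-parameter logistic fit, with Emax expressed relative to serotonin, of intracellular Ca2+ rises read on FLIPR at 480/530 nm, 25° C, over 3 min. Compounds ran from 10 μM in six 1:10 steps (0.2% DMSO) on serum-starved CHO-K1 transfectants pre-loaded 60 min with Ca4 dye and probenecid.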

5HT2C receptors [2] = target: T3, 5HT2C receptors (Homo sapiens, UniProt P28335); experiment: Human 5-HT2C functional assay in 1321N1 cells (intracellular calcium, FLIPR); format: cell-based; set-up: expressed in transfected cells; host or cells: 1321N1 cells; conditions: for EC50: 1321N1 cells stably transfected, maximum calcium response, read-out: EC50 (μM), 5-HT2c Agonist Activity; for Emax: 1321N1 cells, percentage relative to the effect of serotonin, read-out: Emax (%), 5-HT2c Agonist Activity
T3 sequence (P28335 33-458): T1 sequence (P28335 33-458)
Procedure: (ii) Human 5-HT2C Functional Assay in 1321N1 Cells
Functional activity was determined by testing the effect of the compounds on intracellular calcium levels in 1321N1 cells stably transfected with the human 5-HT2C receptor. Cells were seeded into 96-well plates at 50,000 cells/well and grown overnight in tissue culture medium (DMEM with Glutamax I (Invitrogen), containing 10% dFCS, 50 μg/mL Gentamicin, 400 μg/mL Geneticin) at 37° C. and 7% CO2. Growth medium was replaced by medium without dFCS for overnight incubation. Cells were loaded with a fluorescent calcium-sensitive dye in the presence of 1% probenicid according to the manufacturer's protocol (Fluo4 AM, Molecular Devices). Serial compound dilutions (final concentrations 10^−10 to 10^−5 M) were added to the cells either alone or in the presence of serotonin (10^−9 M) and the maximum calcium response was determined using a FLIPR instrument (Molecular Devices). Concentration-response curves were fitted using a four-parameter logistic equation (GraphPad Prism). The concentration at which the compound exerts half its maximal effect is named the ‘effective concentration 50’ or ‘EC50’ and is listed in Table 2.
Emax is the maximum functional response or efficacy expressed as a percentage relative to the effect of serotonin.

5HT2C receptors [3] = target: T3, 5HT2C receptors; experiment: Human 5-HT2C functional assay in CHO-K1 cells (calcium flux, FLIPR); format: cell-based; set-up: expressed in transfected cells; host or cells: CHO-K1 cells; conditions: for Emax: CHO-K1, read-out: Emax (%), 5-HT2c Agonist Activity, CHO-K1 cells, percentage relative to the effect of serotonin
In short: as §1

T2 sequence (P41595 whole entry): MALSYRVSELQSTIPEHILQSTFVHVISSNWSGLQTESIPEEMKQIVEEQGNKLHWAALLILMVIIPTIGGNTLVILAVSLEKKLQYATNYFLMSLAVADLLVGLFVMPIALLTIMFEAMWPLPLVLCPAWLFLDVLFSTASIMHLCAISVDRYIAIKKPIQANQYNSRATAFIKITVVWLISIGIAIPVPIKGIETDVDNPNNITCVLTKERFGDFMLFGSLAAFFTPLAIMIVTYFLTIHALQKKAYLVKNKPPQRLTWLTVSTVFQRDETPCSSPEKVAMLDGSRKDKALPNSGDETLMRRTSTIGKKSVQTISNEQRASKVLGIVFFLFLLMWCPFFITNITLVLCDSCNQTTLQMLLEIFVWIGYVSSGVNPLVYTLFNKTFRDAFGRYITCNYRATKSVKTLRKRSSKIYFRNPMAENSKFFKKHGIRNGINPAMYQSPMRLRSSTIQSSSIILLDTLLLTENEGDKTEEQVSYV

| SMILES | Ki [1] [µM] | EC50 (5HT2B receptors) [nM] | Emax (5HT2B receptors) [%] | EC50 (5HT2C receptors [2]) [µM] | Emax (5HT2C receptors [2]) [%] | EC50 (5HT2C receptors [3]) [nM] | Emax (5HT2C receptors [3]) [%] |
| --- | --- | --- | --- | --- | --- | --- | --- |
| O=C1CC2CNCCN2c2cc(F)ccc2N1 (stereo not shown) [Example 35, 10-fluoro-1,2,3,4,4a,5-hexahydropyrazino[1,2-a][1,5]benzodiazepin-6(7H)-one] | 0.11 | 600 | 80 | 0.052 | 100 | 20 | > 120 |
| O=C1CC2CNCCN2c2cccc(F)c2N1 (stereo not shown) [Example 32, 8-fluoro-1,2,3,4,4a,5-hexahydropyrazino[1,2-a][1,5]benzodiazepin-6(7H)-one] | 0.042 | > 10000 |  | 0.0258 | 102 | 8 | 100 |
| O=C1CC2CNCCN2c2cc(Cl)c(Cl)cc2N1 (stereo not shown) [Example 15, 9,10-dichloro-1,2,3,4,4a,5-hexahydropyrazino[1,2-a][1,5]benzodiazepin-6(7H)-one] | 0.017 |  |  | 0.0081 | 104 |  |  |
| O=C1CC2CNCCN2c2cc(/C=C/c3ccc(F)cc3)ccc2N1 (stereo not shown) [Example 26, 10-[(E)-2-(4-fluorophenyl)vinyl]-1,2,3,4,4a,5-hexahydropyrazino[1,2-a][1,5]benzodiazepin-6(7H)-one] | 0.032 |  |  | 0.0855 | 98.5 |  |  |
| O=C1CC2CNCCN2c2ccc3ccccc3c2N1 (stereo not shown) [Example 39, 3,3a,4,5,6,7-hexahydronaphtho[1,2-b]pyrazino[1,2-d][1,4]diazepin-2(1H)-one] | 0.034 |  |  | > 10 |  |  |  |
| O=C1CC2CNCCN2c2cc(-c3ccccc3)ccc2N1 (stereo not shown) [Example 5, 10-phenyl-1,2,3,4,4a,5-hexahydropyrazino[1,2-a][1,5]benzodiazepin-6(7H)-one] | 0.074 |  |  | 0.0849 | 86 |  |  |
| Clc1cc2c(cc1Cl)N1CCNCC1CCN2 (stereo not shown) [Example 16, 9,10-dichloro-1,2,3,4,4a,5,6,7-octahydropyrazino[1,2-a][1,5]benzodiazepine] | 0.004 |  |  | 0.0018 | 91 |  |  |
| O=C1C[C@H]2CNCCN2c2cc(Cl)ccc2N1 [Example 41, (4aS)-10-chloro-1,2,3,4,4a,5-hexahydropyrazino[1,2-a][1,5]benzodiazepin-6(7H)-one] | 0.005 | 6 | 110 | 0.002 | 99.5 | 0.8 | > 120 |
| CN1CCN2c3ccccc3NC(=O)CC2C1 (stereo not shown) [Example 38, 3-methyl-1,2,3,4,4a,5-hexahydropyrazino[1,2-a][1,5]benzodiazepin-6(7H)-one] | 0.2 | > 10000 |  | 0.0663 | 68 | 80 | 100 |
